Measured values: patent US20080311126A1, “Antisense Oligonucleotides Directed to Ribonucleotide Reducatase R2 and Uses Thereof in Combination Therapies for the Treatment of Cancer” (Genesense Technologies, Inc, priority 2004, published 2008)
“Also recorded” adds a separate entry of the source.

Experiments:
Type in all cases: in vivo
[1] = test system: Human Cervical Carcinoma; assay: Tumour growth assay, human cervical carcinoma in SCID mice
[2] = test system: HT-29 human colon cancer cells; assay: HT-29 colon tumour xenograft in CD-1 nude mice
Description: HT-29 human colon cancer cells (3×10^6 cells in 100 μl of PBS) were subcutaneously injected into the right flank of 6-7 weeks old female CD-1 nude mice. After the size of tumour reached an approximate volume of 50 mm^3, 4 days post tumour cell injection, mitomycin C was administered by bolus infusion into the tail vein at days 4, 11 and 18 with a dose of 3.5 mg/kg/week. Antitumour effect of mitomycin C was further compared to that of SEQ ID NO:1 in combination with mitomycin C. SEQ ID NO:1 was administered by bolus infusion into the tail vein every day at 6 mg/kg and mitomycin C was administered intravenously at days 4, 11 and 18 with a dose of 3.5 mg/kg/week, one hour after the treatments with SEQ ID NO:1. Control animals received saline alone for the same period as SEQ ID NO:1. All treatments were stopped at day 22. A day after the last treatment, tumours were excised from the animals and their weights were measured.
HT-29 human colon cancer cells (3×10^6 cells in 100 μl of PBS) were subcutaneously injected into the right flank of 5-6 week old female CD-1 nude mice. After the size of tumour reached an approximate volume of 100 mm^3, 7 days post tumour cell injection, SEQ ID NO:1 was administered by bolus infusion into the tail vein every other day at 10 mg/kg. Control animals received saline alone for the same period. Antitumour effect of SEQ ID NO:1 was further compared to that of CPT-11 alone or that of SEQ ID NO:1 in combination with CPT-11. CPT-11 was administered intraperitoneally for 5 days in a row from […] with a dose of 20 mg/kg in 100 μl saline. All treatments were stopped at day 32. A day after the last treatment, tumours were excised from the animals and their weights were measured.
HT-29 human colon cancer cells (3×10^6 cells in 100 μl of PBS) were subcutaneously injected into the right flank of 6-7 week old female CD-1 nude mice. Treatments started at day 5 post tumour cell injection, SEQ ID NO:1 and 5-FU were administered as outlined below: • Groups and treatment: • Group 1. Saline treated group: saline:0.1 ml/2 days, i.v.; • Group 2. SEQ ID NO:1 treated group: 10 mg/kg/2 days in 100 μL saline, i.v.; • Group 3. 5-FU treated group:13 mg/kg/5 days/week (one week on and one week off), i.v.; • Group 4. SEQ ID NO:1 plus 5-FU treated group.
HT-29 human colon cancer cells (3×10^6 cells in 100 μl of PBS) were subcutaneously injected into the right flank of 5-6 week old female CD-1 nude mice. Treatments started 4 days post tumour cell injection, SEQ ID NO: 1 and Capecitabine were administered as outlined below: • Group and Treatment: • Group 1: treated with 0.2 ml vehicle solution for capecitabine, o.p.; • Group 2: treated with 0.1 ml saline, i.v.; • Group 3: treated with 359 mg/kg/day×5/w Capecitabine in 0.2 ml vehicle solution, o.p.; • Group 4: treated with 10 mg/kg/2 days SEQ ID NO:1 in 0.1 ml saline i.v.; • Group 5: treated with 10 mg/kg/2 days SEQ ID NO:1 in 0.1 ml saline, i.v. plus 359 mg/kg/day×5/w capecitabine in 0.2 ml vehicle solution, o.p.

[3] = test system: MDA-CDDP-S4 human Cisplatin-resistant breast adenocarcinoma cells; assay: MDA-CDDP-S4 Cisplatin-resistant breast adenocarcinoma, fat pad injection in SCID mice; settings: for Tumour weight as % of saline control: MDA-CDDP-S4 (breast), Cisplatin resistance, SCID
Description: MDA-CDDP-S4 human in vivo-selected Cisplatin-resistant breast adenocarcinoma cells (4×10^6 cells in 100 μl of PBS) were injected into the fat pad (inside of right leg) of 6-7 weeks old female SCID mice. After the size of tumour reached an approximate volume of 100 mm^3, 7 days post tumour cell injection, SEQ ID NO:1 was administered by bolus infusion into the tail vein every other day at 10 mg/kg 9 times. Control animals received saline alone for the same period. Antitumour effect of SEQ ID NO: 1 was further compared to that of Cisplatin or Taxol alone. Cisplatin was adminstered intravenously once a week for three weeks at a dose of 4 mg/kg. Taxol was administered intravenously once a week for three weeks at a dose of 10 mg/kg. Antitumour activities were estimated by the inhibition of tumour volume, which was measured with caliper. Each point represents mean tumour volume calculated from 10 animals per experimental group. […] As expected, treatment with Cisplatin during the same period was ineffective against Cisplatin-resistant tumour.
MDA-CDDP-S4 human in vivo-selected Cisplatin-resistant breast adenocarcinoma cells (4×10^6 cells in 100 μl of PBS) were injected into the fat pad (inside of right leg) of 6-7 weeks old female CB-17 SCID mice. After the size of tumour reached an approximate volume of 100 mm^3, 9 days post tumour cell injection, SEQ ID NO:1 was administered by bolus infusion into the tail vein every other day at 10 mg/kg. Control animals received saline alone for the same period. Antitumour effect of SEQ ID NO:1 was further compared to that of Taxol alone and in combination. Taxol was administered i.p. once a week at a dose of 10 mg/kg. Antitumour activities were estimated by the inhibition of tumour volume FIG. 22A), which was measured with calipers. Each point represents mean tumour volume calculated from 10 animals per experimental group. Animals were sacrificed and tumour weights taken at the end of the study (FIG. 22C). […] This study was repeated with similar results (FIG. 22B).

[4] = Human Cervical Carcinoma^2 (second entry), SCID mice, Day 17 after tumour implantation

“GGCTAAATCGCTCCACCAAG (chemistry not given here) [SEQ ID NO: 1, antisense oligonucleotide that hybridizes to the coding region of human ribonucleotide reductase R2 mRNA]” was tested, and the “Inhibition of tumour weight” value ([1]; Human Cervical Carcinoma^2 (first entry)) was “approximately 90%”, the “Inhibition of tumour size” value [1, 4] was “approximately 60% in SCID mice on” and the “Inhibition of tumour weight” value [1, 4] was “approximately 60% in SCID mice on”. For the same sequence, the “antitumour effect (tumour weight)” value ([2]; Example 12.2, SEQ ID NO:1 10 mg/kg every other day i.v., CPT-11 20 mg/kg i.p. 5 days) was “significant delay of tumour growth; also recorded: superior to the inhibitory effects observed with CPT-11 alone”, the “Tumour weight as % of saline control” value ([2]; HT-29 (colon), Mouse CD-1, CPT-11 study) was 19% and the “antitumour effect (tumour volume)” value ([3]; Example 13.3, SEQ ID NO:1 10 mg/kg 9 times, Cisplatin 4 mg/kg, Taxol 10 mg/kg i.v. weekly for three weeks) was “significant reduction of tumour weight”. For the same sequence, the “antitumour effect (tumour volume, tumour weight)” value ([3]; Example 13.4, CB-17 SCID mice, SEQ ID NO:1 10 mg/kg every other day, Taxol 10 mg/kg i.p. weekly) was “significant reduction of tumour weight; also recorded: superior to the inhibitory effects observed with Taxol”, the “Tumour weight as % of saline control” value ([3]; Taxol combination study, first of two value columns) was 18% and the “Tumour weight as % of saline control” value ([3]; Taxol combination study, second of two value columns) was 41%. The “Tumour weight as % of saline control” value ([3]; study with Taxol and Cisplatin alone) was 32%.
